The values that follow come from the METLIN SMRT retention time set (Domingo-Almenara et al. 2019).

This data set in a line: gradient 5% acetonitrile 3 min, to 50% in 2 min, to 85% in 15 min, held 3 min, 100 µL/min. The conditions noted are these: column: Zorbax Extend-C18 2.1 x 50 mm; eluents: water / acetonitrile, 0.1% formic acid. The gist of the method:
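A Zorbax Extend-C18 column (2.1 × 50 mm, 1.8 μm) run at 100 μL/min with water and acetonitrile, both containing 0.1% formic acid, separated mixtures of ~100 pure standards. The HPLC was coupled to a quadrupole time-of-flight mass spectrometer operated in positive and negative ionization mode, with dead and dwell volumes of 40 μL and 900 μL. Each retention time was taken from a computationally picked adduct peak that was then manually inspected.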
In the case of `Cc1cnc(-c2ccccc2)n1CCNS(=O)(=O)c1ccc(C#N)cc1`, the RP-LC retention time is 634 s.
Take `O=C(NCc1ccccc1F)c1cn(-c2ccc(-c3nc(C4CC4)no3)cn2)cn1`: the RP-LC retention time turned out to be 929 s.
In the case of `CC(C)CNC(=O)C1CC(=O)N(c2ccc3c(c2)CCN3C(=O)C2CC2)C1` (configuration not stated), the RP-LC retention time was 698 s.
The value for `O=C(c1ccnc(N2CCNC(c3ccccc3)C2)c1)N1CCCN(c2ncccn2)CC1` (configuration not stated) was 596 s; that for `COc1ccc2cccc(NC(=O)c3c(F)cccc3Cl)c2n1` was 1090 s.
`O=C(NCCN1CCOCC1)c1ccc2c(c1)CCCN2C(=O)c1ccccc1F` gave an RP-LC retention time of 602 s.
As to `COc1ccc(CN2C=C(C(=O)OCc3cc(=O)n4ccccc4n3)C(C)=NS2(=O)=O)cc1`, the RP-LC retention time worked out at 1130 s.
The value for `Cc1nn(CC(=O)N2CCC(Cc3ccccc3)CC2)c(=O)c2noc(C)c12` was 832 s; that for `Cn1ncc(NC(=O)c2ccc(Cl)cc2)c(N2CCOCC2)c1=O` was 771 s.
The value for `CCC(=O)N1CCN(c2nc3c(s2)CC(C(=O)NC(CC)CC)CC3)CC1` (configuration not stated) was 546 s.
`Cc1cc2c(c(=O)n(-c3ccc(F)cc3)c(=O)n2CC(=O)Nc2cccc(C(C)C)c2)n1C` yielded an RP-LC retention time of 921 s.
Take `Cc1ccnc(NC(c2cccs2)c2ccc3cccnc3c2O)c1` (configuration not stated): the RP-LC retention time was 676 s.
For the molecule `Cc1ccc(OCc2nc3c4ccccc4ncn3n2)cc1`, the RP-LC retention time amounted to 934 s.
The value for `CC1=C(c2ccccc2)S(=O)(=O)N=C1N1CCCN(C(=O)NCC(C)C)CC1` was 768 s; that for `Cc1ccc(OCCOCC(O)CN(CCO)CCO)cc1C` (configuration not stated) was 569 s.
The molecule `COc1ccccc1-c1noc(Cn2c(=O)n(Cc3ccc(F)cc3)c(=O)c3sccc32)n1` registered an RP-LC retention time of 1020 s.
Turning to `COc1ccc(NS(=O)(=O)c2c(C)sc(C)c2-c2cc(C(F)(F)F)on2)c(OC)c1`, the RP-LC retention time amounted to 1140 s.
`CCn1nnc2ccc(-c3noc(Cc4ccc(OC)c(OC)c4)n3)cc21`: the RP-LC retention time was determined as 864 s.
`Cc1ccccc1N1CCN(S(=O)(=O)c2cc(-c3nnc(C4CCC4)o3)co2)CC1`: the RP-LC retention time was determined as 1140 s.
`CCc1ccc(-n2cc(C(=O)OCC(=O)OC)c3ccccc3c2=O)cc1` registered an RP-LC retention time of 1080 s.
Turning to `CCn1ccc(C(=O)Nc2ccc3c(c2)Sc2ncccc2C(=O)N3C)n1`, the RP-LC retention time stood at 698 s.
In the case of `CCCc1ccc(C(=O)CC2(O)C(=O)Nc3ccccc32)cc1` (configuration not stated), the RP-LC retention time stood at 831 s.
The value for `Cc1cccc(N2CCN(C(=O)Cn3c(=O)c4nnc(C)n4c4ncccc43)CC2)c1` was 738 s; that for `O=C(CSc1ncccn1)N1CCc2ccccc21` was 720 s; that for `CCCN(CCc1cccs1)C1CCc2c(O)cccc2C1` (configuration not stated) was 757 s.
Molecule `CCc1cccc(C)c1NC(=O)Cn1c(=O)n(-c2cccc(C)c2)c(=O)c2c1cc(C)n2C` returned an RP-LC retention time of 881 s.
Consider `CCC(=O)N(C1CCOCC1)C1CCN(S(=O)(=O)c2ccccc2Cl)CC1`, for which the RP-LC retention time was 840 s.
The molecule `CCC(=O)Nc1ccc(-n2cnc(C(=O)N3CCN(c4cccc(OC)c4)CC3)c2)nc1` had an RP-LC retention time of 717 s.
The value for `CC(=O)N1CCCc2ccc(NC(=O)Cc3ccc(Cl)cc3)cc21` was 816 s.
As for `Cc1ccc(-n2c(=O)c3c(cc(C)n3C)n(CC(=O)Nc3cccc(Cl)c3)c2=O)cc1`, the RP-LC retention time was 937 s.
Consider `COCCNC(=O)C1CCN(c2nc3ccc(-c4ccc(OC)cc4)nc3s2)CC1`, for which the RP-LC retention time was 805 s.
Take `Cc1cccc(C2=NC3(CCN(C(=O)c4ccc5c(c4)OCO5)CC3)NC2=O)c1`: the RP-LC retention time was 792 s.
